Source: patent publication US10473574B2, “Assembly for assessing drug permeability with adjustable biomimetic properties” (Syddansk Universitet, priority 2014, dated 2019)
Blank lines part the entries; values can stand above or below the compound they belong to.

How the values were obtained:
in vitro = assay: in vitro
Method: A sheet of cellulose hydrate was prewashed in demineralized water. The sheet was put on a flat surface and sprayed with a 1% (M/M) solution of egg yolk lecithin (E-80, Lipoid GmbH, Ludwigshafen, Germany) in ethanol. […] Once the organic solvent was evaporated, two coated sheets were placed one upon the other, sandwiching the phospholipids.
Frantz cells with a permeation surface of 1 cm^2, a maximum volume in the upper compartment of 1.8 mL and a fixed volume in the bottom compartment of 8 mL were used.
The barrier was placed in between of the donor and the acceptor chamber, and a permeability experiment was performed at 25° C. […]
8 mL of phosphate buffer solution was placed into the lower compartment. The barrier was placed, and at time zero (start of the experiment) 1.5 mL of a 10 mM phosphate buffer solution of calcein was placed in the upper compartment. Every 60 minutes, 0.2 mL of the solution in the lower compartment were withdrawn and calcein concentration quantified by fluorescence spectroscopy. The removed volume was replaced with an equivalent amount of fresh buffer.
For all permeability studies, Franz diffusion cells with a surface area of 1 cm^2, upper chamber nominal volume of 2 mL and lower chamber volume of 8 mL were employed. The donor phase (upper chamber) was filled with 1.5 mL hydrophilic marker calcein (5 mM) and different surfactants and solvents, whereas the acceptor compartment (lower chamber) was filled with 8 mL PBS (7.4±0.05). The barrier was placed between the donor and acceptor compartment and the flux (3) of calcein was measured over time. The permeability studies were carried out over a 5 hours period, and samples of 200 μL were withdrawn from the acceptor chamber every 30 min for the first 2 hours and then every 60 min. The withdrawn sample volume was replaced with an equal amount of fresh PBS at each time point. […]

[1] = Permeability of calcein through the empty barrier support (no lipid layer); type: in vitro ADME; conditions: pH 7.4, calcein 5 mM donor, PBS acceptor
Excerpt: It is visible that the permeation of calcein through the empty barrier support is much faster. Specifically, the permeability of calcein is approx. 10 times higher as compared to the barrier of the present invention.

influence of lipid composition of the barrier on permeability (in vitro): strong influence
Structure (SMILES): CC(C)Cc1ccc(C(C)C(=O)O)cc1 (stereo not drawn) [ibuprofen]

Structure (SMILES): Cn1c(=O)c2c(ncn2C)n(C)c1=O [caffeine]
permeability with FeSSIF as acceptor media versus other acceptor media (in vitro): unchanged

influence of lipid composition of the barrier on permeability (in vitro): strong influence
Structure (SMILES): CC(C)(C)NCC(O)COc1cccc2c1CC(O)C(O)C2 (stereo not drawn) [nadolol]

change of permeability with Polysorbat 80 (in vitro): not increased, but decreased
influence of lipid composition of the barrier on permeability (in vitro): strong influence
increase of permeability with 5% Cremophor relative to PBS (in vitro; 5 h, 5 mM, pH 7.4): ~2 fold
Papp at 5 h, 5 mM (in vitro; pH 7.4, Papp in PBS): 2.7 ± 0.5 ×10⁻⁶ cm/s
Papp (in vitro; pH 7.4, permeability coefficient (P)): 1.2 ± 0.1 ×10⁻⁶ cm/s
Papp at 5 h, 5 mM [1]: 16.5 ± 1 ×10⁻⁶ cm/s
Structure (SMILES): O=C(O)CN(CC(=O)O)Cc1cc2c(cc1O)Oc1cc(O)c(CN(CC(=O)O)CC(=O)O)cc1C21OC(=O)c2ccccc21 [calcein]
